Assay results from patent US20250019401A1, “ANTIMICROBIAL PEPTIDE BOLESPLEENIN OF BOLEOPHTHALMUS PECTINIROSTRIS AND APPLICATION THEREOF” (Xiamen University, priority 2023, published 2025).
Where a SMILES comes first, the peptide text is derived from it.

Experiments:
Format in all cases: cell-based
[1] = tested on: Acinetobacter baumannii
Excerpt: (§1) Bacterial strains involved in Embodiment 2 are as follows: Staphylococcus aureus, Acinetobacter baumannii, Escherichia coli, Enterococcus faecium, Enterococcus faecalis, Pseudomonas aeruginosa, Cryptococcus neoformans, Fusarium oxysporum, Aspergillus flavus, and Fusarium solani.
(§2) The bacterial strains are purchased from the China General Microbiological Culture Collection Center (CGMCC).
(§3) A specific analysis method of this embodiment is as follows:
(§4) (1) The conserved strains are coated on a nutrient broth plate, a Yeast Extract Peptone Dextrose (YPD) plate, or a potato dextrose plate and are inverted and incubated for 1-7 days.
(§5) (2) Colonies are picked from the plates, inoculated on a slant with a corresponding medium, continually incubated for 1-7 days, and washed down from the slant with corresponding medium with 10 mMol/L (mM) of sodium phosphate buffer (pH=7.4), and concentrations of suspensions of the bacteria or suspensions of the fungi are adjusted. The suspensions of the bacteria are diluted so that final concentrations are 5×10^5 CFU/mL. Mold spores of the suspensions of the fungi are counted under an optical microscope using a hemocyte counting plate, and concentrations of mold spores are adjusted to final concentrations of 5×10^4 spores/mL.
(§6) (3) Powder of the synthesized antimicrobial peptide Bolespleenin is dissolved in sterilized distillation-distillation H2O (ddH2O), filtered through a 0.22 μm filter membrane, and concentrations of the antimicrobial peptide Bolespleenin are then diluted to 3 μM, 6 μM, 12 μM, 24 μM, 48 μM, 96 μM, and 192 μM, and placed on ice for use.
(§7) (4) A blank control group, a negative control group, and an experimental group of each of the bacteria and the fungi to be tested are set on 96-well cell culture plates, and each of the blank control group, the negative control group, and the experimental group has three parallel samples.
(§8) The blank control group a: 50 μL of the antimicrobial peptide Bolespleenin with 50 μL of the corresponding medium;
(§9) The negative control group b: 50 μL of the sterilized ddH2O with 50 μL of each of the suspensions of the bacteria or the suspensions of the fungi; and
(§10) The experimental group c: 50 μL of the antimicrobial peptide Bolespleenin with 50 μL of each of the suspensions of the bacteria or the suspensions of the fungi.
(§11) (5) The 96-well cell culture plates are plated in an incubator at 28° C. and incubated for 1-2 days, and MIC results of the experimental group are observed. The experimental group is mixed by blowing, an appropriate amount of each of the suspensions of the bacteria or the suspensions of the fungi is sucked up, added dropwise onto the plate with the corresponding medium, and inverted and incubated at an appreciate temperature for 1-2 days, and MBC results are observed.

[2] = tested on: Aspergillus flavus
Excerpt: as §1, §2, §3, §4, §5, §6, §7, §8, §9, §10, §11

[3] = tested on: Cryptococcus neoformans
Excerpt: as §1, §2, §3, §4, §5, §6, §7, §8, §9, §10, §11

[4] = tested on: Enterococcus faecalis
Excerpt: as §1, §2, §3, §4, §5, §6, §7, §8, §9, §10, §11

[5] = tested on: Enterococcus faecium
Excerpt: as §1, §2, §3, §4, §5, §6, §7, §8, §9, §10, §11

[6] = tested on: Escherichia coli
Excerpt: as §1, §2, §3, §4, §5, §6, §7, §8, §9, §10, §11

[7] = tested on: Fusarium oxysporum
Excerpt: as §1, §2, §3, §4, §5, §6, §7, §8, §9, §10, §11

[8] = tested on: Fusarium solani
Excerpt: as §1, §2, §3, §4, §5, §6, §7, §8, §9, §10, §11

[9] = tested on: Pseudomonas aeruginosa
Excerpt: as §1, §2, §3, §4, §5, §6, §7, §8, §9, §10, §11

[10] = tested on: Staphylococcus aureus
Excerpt: as §1, §2, §3, §4, §5, §6, §7, §8, §9, §10, §11

## CC[C@H](C)[C@H](NC(=O)[C@@H](N)CC(C)C)C(=O)NCC(=O)N[C@@H](CC(C)C)C(=O)N[C@@H](Cc1ccc(O)cc1)C(=O)N[C@@H](CC(C)C)C(=O)N[C@@H](CC(C)C)C(=O)N[C@@H](Cc1c[nH]cn1)C(=O)N[C@@H](CCCNC(=N)N)C(=O)N[C@@H](CCCNC(=N)N)C(=O)N[C@@H](CCCNC(=N)N)C(=O)N[C@@H](CCCNC(=N)N)C(=O)N[C@@H](CCCNC(=N)N)C(=O)N[C@@H](Cc1c[nH]cn1)C(=O)O [Bolespleenin, Leu-Ile-Gly-Leu-Tyr-Leu-Leu-His-Arg-Arg-Arg-Arg-Arg-His] (H-LIGLYLLHRRRRRH-OH)
[1]
  MBC (a-b): 1.5 to 3 µM
  MIC (a-b): 1.5 to 3 µM
[2]
  MBC (a-b): 24 to 48 µM
  MIC (a-b): 6 to 12 µM
[3]
  MBC (a-b): <1.5 µM
  MIC (a-b): <1.5 µM
[4]
  MBC (a-b): 3 to 6 µM
  MIC (a-b): 3 to 6 µM
[5]
  MBC (a-b): 1.5 to 3 µM
  MIC (a-b): 1.5 to 3 µM
[6]
  MBC (a-b): 6 to 12 µM
  MIC (a-b): 3 to 6 µM
[7]
  MBC (a-b): 3 to 6 µM
  MIC (a-b): 3 to 6 µM
[8]
  MBC (a-b): 3 to 6 µM
  MIC (a-b): 3 to 6 µM
[9]
  MBC (a-b): 1.5 to 3 µM
  MIC (a-b): <1.5 µM
[10]
  MBC (a-b): 1.5 to 3 µM
  MIC (a-b): <1.5 µM
